Here are results for 10 molecules from US12545673B2, “Imidazopyridine derivative and pharmaceutical composition comprising same as active ingredient” (TSD LIFE SCIENCES CO., LTD., priority 2019, dated 2026).

The target of test [1] is MLK2 (Homo sapiens (Human), UniProt Q02779). Kind of test: Evaluation of inhibitory activity of enzyme units, MLK2 ([γ-33P]-ATP filter assay). It counts as biochemical.
In test [2] the target is MLK1 (Homo sapiens (Human), UniProt P80192). Briefly: Evaluation of inhibitory activity of enzyme units, MLK1 ([γ-33P]-ATP filter assay). It counts as biochemical.
In test [3] the test system is gastric cancer cell line AGS. Briefly: Cancer cell proliferation inhibitory activity evaluation 2 (CCK-8), AGS. To be noted: Homo sapiens, read-out: Cancer cell proliferation inhibitory activity AGS. It counts as cell-based.
Test [4] deals with gastric cancer cell line Hs746T. Kind of test: Cancer cell proliferation inhibitory activity evaluation 2 (CCK-8), Hs746T. It counts as cell-based. To be noted: Homo sapiens.
Test [5] deals with human lung cancer cell line A549. Briefly: Cancer cell proliferation inhibitory activity evaluation 2 (CCK-8), A549. It counts as cell-based.
Test [6] has as its target MLK3 (Homo sapiens (Human), UniProt Q16584). Briefly: Evaluation of inhibitory activity of enzyme units, MLK3 ([γ-33P]-ATP filter assay). To be noted: read-out: IC50(nM) MLK3.
Test [7] concerns acute myeloid leukemia cell line U937. Kind of test: Cancer cell proliferation inhibitory activity evaluation 2 (CCK-8), U937. It counts as cell-based. To be noted: Homo sapiens, read-out: Cancer cell proliferation inhibitory activity U937.
Test [8] has as its system acute lymphoblastic leukemia cell line Jurkat. Kind of test: Cancer cell proliferation inhibitory activity evaluation 2 (CCK-8), Jurkat. To be noted: Homo sapiens. It counts as cell-based.
The test system of test [9] is human breast cancer cell line MDA-MB-231. Briefly: Cancer cell proliferation inhibitory activity evaluation 1 (CCK-8), MDA-MB-231. It counts as cell-based. The conditions noted are these: MDA-MB-231, 10 μM, 72 hours, CCK-8, read-out: Cancer cell proliferation inhibitory activity MDAMB231. How it is done:
(§1) In order to identify whether the compound has anticancer activity, the human breast cancer cell line MDA-MB-231, the colorectal cancer cell line HT-29, the acute myeloid leukemia cell line U937, and the chronic myeloid leukemia cell line K562 were used. The cell line was cultured using RPMI-1640 medium containing 10% fetal bovine serum. Welgene products were used as the medium, and hyclone products were used for fetal bovine serum, and 1% of antibiotics for cell culture from Gibco were used as the culture medium.

Test [10] deals with acute myeloid leukemia cell line U937. Kind of test: Cancer cell proliferation inhibitory activity evaluation 1 (CCK-8), U937. It counts as cell-based. To be noted: Homo sapiens, U-937; 10 μM, 72 hours, CCK-8 (Table 2); read-out: Cancer cell proliferation inhibitory activity U937. On the procedure:
as §1

In test [11] the test system is colorectal cancer cell line HT-29. Kind of test: Cancer cell proliferation inhibitory activity evaluation 1 (CCK-8), HT-29. It counts as cell-based. The conditions noted are these: Homo sapiens, HT-29; 10 μM, 72 hours, CCK-8; read-out: Cancer cell proliferation inhibitory activity HT29. How it is done:
as §1

For test [12], the system named is chronic myeloid leukemia cell line K562. Kind of test: Cancer cell proliferation inhibitory activity evaluation 1 (CCK-8), K562. It counts as cell-based. The conditions noted are these: Homo sapiens, K562; 10 μM, 72 hours, CCK-8; read-out: Cancer cell proliferation inhibitory activity K562. On the procedure: as §1
Test [13] addresses LRRK2 wild-type (Homo sapiens (Human), UniProt Q5S007). Briefly: Evaluation of inhibitory activity against LRRK2 (affinity bead competition binding), wild-type. To be noted: read-out: Residual active values (%) LRRK2. On the procedure:
(§2) In order to identify the activity inhibitory effect on the LRRK2 wild-type and LRRK2 mutant (G2019S) kinase of the example compound according to the present disclosure, BL21-derived E. coli bacteria (E. coli) were cultured in a 24-well plate until the growth phase (log phase). After culturing, T7 phage tagged with LRRK2 wild-type or LRRK2 mutant (G2019S) was used to infect the multiplicity of infection (MOI) at 0.4. Thereafter, the E. coli bacteria were stirred at 32° C. for 90 to 150 minutes to allow dissolution. The lysate of E. coli bacteria was centrifuged (6,000×g) and filtered (0.2 μm), and the obtained tagged T7 phage […] a DNA-tagged kinase protein (LRRK2 or LRRK2 G2019S) was obtained.
(§3) After blocking the biotinylated ligand with extra biotin, it is washed with Pierce's buffer, SeaBlock (1% BSA, 0.05% Tween 20, 1 mM DTT) to remove unbound ligand and reduce non-specific binding.
(§4) The compound was prepared at a concentration of 40× in 100% DMSO and used after dilution, and all binding reactions were performed in a final volume of 0.02 ml in a 384-well plate.
(§5) The activity inhibitory effect on the LRRK2 wild-type and LRRK2 mutant (G2019S) kinases of the example compounds according to the present disclosure was measured and shown in Table 10 below.

For test [14], the target named is LRRK2 mutant (G2019S) (Homo sapiens (Human), UniProt Q5S007, G2019S). Briefly: Evaluation of inhibitory activity against LRRK2 (affinity bead competition binding), G2019S mutant. To be noted: read-out: Residual active values (%) LRRK2(G2019S). On the procedure:
as §2, §3, §4, §5

Test [15] deals with TGF-β1. Briefly: Fibrosis inhibition evaluation 2, palmitic acid-induced HepG2, real-time PCR, TGF-β1.
Test [16] concerns Fibronectin-1. Kind of test: Fibrosis inhibition evaluation 2, palmitic acid-induced HepG2, real-time PCR, Fibronectin-1.
Setting [17] is: 72 h, read-out: Cancer cell proliferation inhibitory activity Jurkat.
Where [18] appears, read: U-937, 10 μM, 72 hours, CCK-8 (Table 3).
Setting [19] is: 10 μM, 72 hours, CCK-8, read-out: Cancer cell proliferation inhibitory activity Jurkat.

By IC50 is commonly meant the concentration needed to halve the response being measured.

Like-named read-outs stand apart in the source and are kept apart here.

MLK3, sequence (Q16584 whole entry, looked up): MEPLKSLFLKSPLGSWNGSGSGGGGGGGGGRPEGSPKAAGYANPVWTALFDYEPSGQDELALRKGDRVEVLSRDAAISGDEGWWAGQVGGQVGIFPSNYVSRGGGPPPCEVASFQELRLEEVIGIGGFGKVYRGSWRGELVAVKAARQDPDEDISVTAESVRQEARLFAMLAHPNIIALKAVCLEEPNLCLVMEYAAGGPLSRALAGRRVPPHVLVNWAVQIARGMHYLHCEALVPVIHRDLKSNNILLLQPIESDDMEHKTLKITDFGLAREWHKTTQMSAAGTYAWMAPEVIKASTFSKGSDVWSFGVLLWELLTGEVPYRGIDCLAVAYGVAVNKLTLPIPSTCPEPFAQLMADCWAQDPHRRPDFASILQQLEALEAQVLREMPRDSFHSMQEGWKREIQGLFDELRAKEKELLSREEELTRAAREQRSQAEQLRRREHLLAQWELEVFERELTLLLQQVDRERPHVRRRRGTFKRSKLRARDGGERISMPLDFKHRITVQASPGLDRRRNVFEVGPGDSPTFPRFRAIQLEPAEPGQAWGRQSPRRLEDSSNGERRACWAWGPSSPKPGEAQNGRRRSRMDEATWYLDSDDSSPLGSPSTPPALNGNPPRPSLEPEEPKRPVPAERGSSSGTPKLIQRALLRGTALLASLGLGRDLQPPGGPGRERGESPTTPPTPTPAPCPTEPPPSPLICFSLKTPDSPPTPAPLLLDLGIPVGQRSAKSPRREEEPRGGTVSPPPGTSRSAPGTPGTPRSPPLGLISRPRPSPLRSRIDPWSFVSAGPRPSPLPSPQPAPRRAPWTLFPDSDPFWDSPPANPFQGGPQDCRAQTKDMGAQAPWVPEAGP
MLK1, sequence (P80192 whole entry, looked up): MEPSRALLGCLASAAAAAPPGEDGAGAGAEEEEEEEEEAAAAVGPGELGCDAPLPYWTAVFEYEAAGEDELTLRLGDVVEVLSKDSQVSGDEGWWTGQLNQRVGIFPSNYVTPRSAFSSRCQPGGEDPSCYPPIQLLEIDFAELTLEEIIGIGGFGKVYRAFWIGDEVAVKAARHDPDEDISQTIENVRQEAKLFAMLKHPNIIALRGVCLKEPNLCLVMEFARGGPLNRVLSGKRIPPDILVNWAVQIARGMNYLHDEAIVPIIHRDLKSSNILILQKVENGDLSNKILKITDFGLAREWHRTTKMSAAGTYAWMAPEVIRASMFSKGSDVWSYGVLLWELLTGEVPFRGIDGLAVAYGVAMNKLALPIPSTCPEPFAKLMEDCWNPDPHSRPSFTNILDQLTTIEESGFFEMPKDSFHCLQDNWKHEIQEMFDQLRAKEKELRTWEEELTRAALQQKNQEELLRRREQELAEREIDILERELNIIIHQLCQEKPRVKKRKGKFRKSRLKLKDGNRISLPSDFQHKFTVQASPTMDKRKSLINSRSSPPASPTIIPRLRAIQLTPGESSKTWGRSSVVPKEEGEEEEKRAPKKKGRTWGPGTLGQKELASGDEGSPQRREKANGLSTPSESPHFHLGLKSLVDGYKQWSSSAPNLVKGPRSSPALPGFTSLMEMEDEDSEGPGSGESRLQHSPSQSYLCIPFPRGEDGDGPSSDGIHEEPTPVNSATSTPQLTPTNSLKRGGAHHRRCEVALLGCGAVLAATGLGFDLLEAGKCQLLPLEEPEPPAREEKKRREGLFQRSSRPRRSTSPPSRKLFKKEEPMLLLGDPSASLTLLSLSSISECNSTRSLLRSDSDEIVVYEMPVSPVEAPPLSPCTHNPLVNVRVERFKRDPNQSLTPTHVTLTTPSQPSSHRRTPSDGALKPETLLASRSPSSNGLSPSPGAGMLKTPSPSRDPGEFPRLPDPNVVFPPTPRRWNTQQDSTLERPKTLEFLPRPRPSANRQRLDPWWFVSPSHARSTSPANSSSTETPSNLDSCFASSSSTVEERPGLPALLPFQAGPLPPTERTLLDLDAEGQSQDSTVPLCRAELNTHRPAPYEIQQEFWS
MLK2, sequence (Q02779 whole entry, looked up): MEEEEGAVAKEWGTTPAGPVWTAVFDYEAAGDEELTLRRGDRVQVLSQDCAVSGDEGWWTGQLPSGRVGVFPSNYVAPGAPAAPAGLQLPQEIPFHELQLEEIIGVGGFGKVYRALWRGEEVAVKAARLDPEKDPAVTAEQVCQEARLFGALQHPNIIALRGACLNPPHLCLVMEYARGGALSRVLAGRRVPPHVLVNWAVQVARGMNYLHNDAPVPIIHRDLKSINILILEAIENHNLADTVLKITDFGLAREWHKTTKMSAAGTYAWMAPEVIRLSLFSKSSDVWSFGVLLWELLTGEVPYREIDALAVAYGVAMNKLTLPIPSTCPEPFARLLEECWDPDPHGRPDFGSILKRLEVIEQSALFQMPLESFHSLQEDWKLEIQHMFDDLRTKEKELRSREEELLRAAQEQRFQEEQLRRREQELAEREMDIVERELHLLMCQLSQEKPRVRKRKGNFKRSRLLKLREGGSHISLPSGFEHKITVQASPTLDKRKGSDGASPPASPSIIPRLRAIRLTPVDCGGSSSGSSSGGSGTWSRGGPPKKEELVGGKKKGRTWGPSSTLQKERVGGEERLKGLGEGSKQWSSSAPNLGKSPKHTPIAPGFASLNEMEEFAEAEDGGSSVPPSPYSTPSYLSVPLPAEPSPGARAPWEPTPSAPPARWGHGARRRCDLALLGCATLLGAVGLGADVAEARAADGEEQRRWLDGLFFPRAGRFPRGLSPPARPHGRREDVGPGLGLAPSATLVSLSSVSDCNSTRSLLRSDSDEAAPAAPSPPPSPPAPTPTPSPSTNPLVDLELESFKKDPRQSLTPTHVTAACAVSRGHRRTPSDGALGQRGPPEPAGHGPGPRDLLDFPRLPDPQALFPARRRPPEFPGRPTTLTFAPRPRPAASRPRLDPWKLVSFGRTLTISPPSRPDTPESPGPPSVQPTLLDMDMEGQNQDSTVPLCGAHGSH

As for `CCS(=O)(=O)N1CC[C@H](Nc2c(Br)cnc3nc(-c4cc(C)n(-c5cccc(S(=O)(=O)NC)c5)c4C)[nH]c23)C1` [Example 18, (S)-3-(3-(6-bromo-7-((1-(ethylsulfonyl)pyrrolidine-3-yl)amino)-1H-imidazo[4,5-b]pyridine-2-yl)-2,5-dimethyl-1H-pyrrol-1-yl)-N-methylbenzenesulfonamide], the IC50 was determined as 109 nM in test [1], 75 nM in test [2] and 13 nM in test [6]. Moreover, the inhibition at 10 µM in [3] (72 h) is greater than 50%; in [4] (72 h, read-out: Cancer cell proliferation inhibitory activity Hs746T), 10 to 50%; in test [5] (A549, 72 h, read-out: Cancer cell proliferation inhibitory activity A549), 10 to 50%.

In the case of `CCS(=O)(=O)N1CC[C@H](Nc2c(Br)cnc3nc(-c4cc(C)n(-c5cccc(C(N)=O)c5)c4C)[nH]c23)C1` [Example 20, (S)-3-(3-(6-bromo-7-((1-(ethylsulfonyl)pyrrolidine-3-yl)amino)-1H-imidazo[4,5-b]pyridine-2-yl)-2,5-dimethyl-1H-pyrrol-1-yl)benzamide], the IC50 stood at 217 nM in test [1], 31 nM in test [2] and 14 nM in test [6]. Also, the inhibition at 10 µM was less than 10% in test [7] (U-937, 72 h); 10 to 50% in test [8] (setting [17]); 10 to 50% in test [3] (72 h).

As for `CCS(=O)(=O)N1CC[C@H](Nc2c(Br)cnc3nc(-c4cc(C)n(-c5ccc(S(N)(=O)=O)cc5)c4C)[nH]c23)C1` [Example 24, (S)-4-(3-(6-bromo-7-((1-(ethylsulfonyl)pyrrolidine-3-yl)amino)-1H-imidazo[4,5-b]pyridine-2-yl)-2,5-dimethyl-1H-pyrrol-1-yl)benzenesulfonamide], the results for the IC50 in test [1], in [2] and in test [6] were 95 nM, 29 nM and 20 nM, respectively. Also, the inhibition at 10 µM in test [7] (U-937, 72 h) is 10 to 50%; in [8] (setting [17]) it was 10 to 50%; in test [3] (72 h) it was 10 to 50%.

As to `CCS(=O)(=O)N1CC[C@H](Nc2c(Br)cnc3[nH]c(-c4cc(C)n(-c5ccc(C(=O)N6CCOCC6)cc5)c4C)nc23)C1` [Example 5, (S)-(4-(3-(6-bromo-7-((1-(ethylsulfonyl)pyrrolidine-3-yl)amino)-3H-imidazo[4,5-b]pyridine-2-yl)-2,5-dimethyl-1H-pyrrol-1-yl)phenyl) (morpholino) methanone], the IC50 in [1] was 92 nM; in test [6], 6 nM.

Turning to `CCS(=O)(=O)N1CC[C@H](Nc2c(Br)cnc3nc(-c4cc(C)n(-c5cccc(OCCOC)c5)c4C)[nH]c23)C1` [Example 21, (S)-6-bromo-N-(1-(ethylsulfonyl)pyrrolidine-3-yl)-2-(1-(3-(2-methoxyethoxy)phenyl)-2,5-dimethyl-1H-pyrrol-3-yl)-1H-imidazo[4,5-b]pyridine-7-amine], the IC50 in test [1] was 243 nM; in [2], 75 nM; in test [6], 15 nM. In addition, the inhibition at 10 µM in test [7] (U-937, 72 h) was 10 to 50%; in [8] (setting [17]), 10 to 50%; in test [3] (72 h), greater than 50%.

Regarding `Cc1cc(-c2nc3c(Nc4cccc(S(N)(=O)=O)c4)c(Br)cnc3[nH]2)c(C)n1-c1ccc(C(=O)N2CCOCC2)cc1` [Example 27, 3-((6-bromo-2-(2,5-dimethyl-1-(4-(morpholine-4-carbonyl)phenyl)-1H-pyrrol-3-yl)-3H-imidazo[4,5-b]pyridine-7-yl)amino)benzenesulfonamide], the values for the IC50 in test [1], in test [2] and in test [6] were 178 nM, 176 nM and 20 nM, respectively. Further, the inhibition at 10 µM in [7] (setting [18]) was less than 10%; in [8] (setting [19]) it was less than 10%; in test [3] (10 μM, 72 hours, CCK-8), 10 to 50%.

`CCNS(=O)(=O)c1cccc(-n2c(C)cc(-c3nc4ncc(Br)c(N[C@H]5CCN(S(=O)(=O)CC)C5)c4[nH]3)c2C)c1` [Example 19, (S)-3-(3-(6-bromo-7-((1-(ethylsulfonyl)pyrrolidine-3-yl)amino)-1H-imidazo[4,5-b]pyridine-2-yl)-2,5-dimethyl-1H-pyrrol-1-yl)-N-ethylbenzenesulfonamide]: the IC50 turned out to be 90 nM in [1], 36 nM in test [2] and 14 nM in test [6]. The inhibition at 10 µM in [7] (U-937, 72 h) is greater than 50%; in [8] (setting [17]) it was greater than 50%; in test [3] (72 h), greater than 50%.

`CCS(=O)(=O)N1CC[C@H](Nc2c(Br)cnc3[nH]c(-c4cc(C)n(-c5cccc(C(=O)N6CCOCC6)c5)c4C)nc23)C1` [Example 6, (S)-(3-(3-(6-bromo-7-((1-(ethylsulfonyl)pyrrolidine-3-yl)amino)-3H-imidazo[4,5-b]pyridine-2-yl)-2,5-dimethyl-1H-pyrrol-1-yl)phenyl) (morpholino) methanone]: the IC50 came to 181 nM in [1] and 6 nM in test [6].

In the case of `CCS(=O)(=O)N1CC[C@H](Nc2c(Br)cnc3nc(-c4cc(C)n(-c5cccc(OCCN6CCOCC6)c5)c4C)[nH]c23)C1` [Example 3, (S)-6-bromo-2-(2,5-dimethyl-1-(3-(2-morpholinoethoxy)phenyl)-1H-pyrrol-3-yl)-N-(1-(ethylsulfonyl)pyrrolidine-3-yl)-1H-imidazo[4,5-b]pyridine-7-amine], the inhibition at 10 µM in [9] is greater than 50%; in test [10] it was greater than 50%; in test [11], 10 to 50%; in test [12], greater than 50%; in [7] (setting [18]), 10 to 50%; in [8] (setting [19]) it was greater than 50%. The inhibition at 10 µM was greater than 50% in test [4] (10 μM, 72 hours, CCK-8, read-out: Cancer cell proliferation inhibitory activity Hs746T) and 10 to 50% in test [5] (A549, 10 μM, 72 hours, CCK-8, read-out: Cancer cell proliferation inhibitory activity A549). The remaining binding at 0.1 µM in [13] (100 nM) is 17%; in test [14] (100 nM), 3.5%. Further, the remaining binding at 0.5 µM in test [13] (500 nM) was found to be 3.1%; in test [14] (500 nM), 0.9%. For the same molecule, the “Relative degree of expression inhibition (%) TGF-β1” value in test [15] is 109.05%. The “Relative degree of expression inhibition (%) Fibronectin-1” value in test [16] was found to be 72.85%.

For the molecule `CCS(=O)(=O)N1CC[C@H](Nc2c(Br)cnc3nc(-c4cc(C)n(-c5ccc(OCCOC)cc5)c4C)[nH]c23)C1` [Example 22, (S)-6-bromo-N-(1-(ethylsulfonyl)pyrrolidine-3-yl)-2-(1-(4-(2-methoxyethoxy)phenyl)-2,5-dimethyl-1H-pyrrol-3-yl)-1H-imidazo[4,5-b]pyridine-7-amine], the IC50 in test [1] is 186 nM; in test [2] it was 38 nM; in test [6], 17 nM. For the same molecule, the inhibition at 10 µM in [3] (10 μM, 72 hours, CCK-8) lay in the range of 10 to 50%.
